Assay: Determination of CLint in mouse hepatocytes (hepatocyte stability)
Assay type: in vitro ADME
Details: female CD-1 mouse hepatocytes
Method: Hepatocyte stability was assessed, as described previously, on a liquid handling platform (Hamilton Microlab Vantage, Bonaduz, Switzerland) using cryopreserved pooled female CD-1 mouse hepatocytes in suspension. Viability was determined in a Neubauer chamber by trypan blue staining and was always above 70%. Compounds (1 µM final) were incubated with hepatocytes at a cell density of 0.2 × 10^6 cells/mL in Krebs–Henseleit buffer (pH 7.4). […] Incubations were carried out in duplicate at 37 °C under an atmosphere of 5% CO2 and 95% humidity. Aliquots were taken at time points of 0, 10, 20, 40, 60, and 90 min and quenched with a two-fold volume of an ACN solution containing 1.5 µM of an internal standard. The supernatants were further diluted to a ratio of 1:3 (v/v) with supernatants from other compound incubations for bioanalytical cocktailing designed to avoid analytical interference. The samples were analyzed by UHPLC-MS/MS (for details, see the Supplementary Materials).
For quantitation with the Analyst software (version 1.7.2), MS peak area ratios of the compounds and an internal standard were calculated and transformed to nanomolar concentrations determined based on a four-point calibration comprising 1.2% to 150% of the incubation concentration. Calibration standards were prepared using heat-inactivated (60 °C for at least 15 min) hepatocytes as a biomatrix and processed in duplicate, as described for the test samples.
For data analysis, the concentration data were plotted against the incubation time, the first-order kel was determined by non-linear regression using Biorails version 5.10.22/Morphit version 8.0 (The Edge Software Consultancy, Guildford, UK), and CLint values (expressed in µL/min/10^6 cells) were obtained by normalizing kel with the hepatocyte concentration.

| Hepatocyte CLint [µl/min/1e6 cells] | SMILES |
| --- | --- |
| 11.9 | O=C(O)c1cc(-c2ccc(F)cc2F)ccc1O [MSC001] |
| 16.5 | CNC(=O)c1cc(Oc2ccc3nc(N[C@@H]4CCCC[C@H]4O)sc3c2)ccn1 [MSC003] |
| 70.5 | COc1cccc(OCCCN)c1-c1cc(Nc2cnc(C#N)cn2)n[nH]1 [MSC020] |
| 222.1 | N#Cc1c[nH]c2c(C(=O)N3CCN(CCc4ccc(F)cc4)CC3)cccc12 [MSC213] |

Source: publication PMC12029992, “Beyond-Rule-of-Five Compounds Are Not Different: In Vitro–In Vivo Extrapolation of Female CD-1 Mouse Clearance Based on Merck Healthcare KGaA Compound Set” (Pharmaceuticals, 2025)
